Where a name gives a salt, the structure may show the parent alone.
Tests used:
[1] = Thermo-Gravimetric Analysis (TGA), thermal stability; conditions: for thermal stability up to (TGA): 10° C./min, nitrogen
Protocol: Thermo—Gravimetric Analysis (TGA)
TGA thermograms were obtained with a TA Instrument Discovery 550 in Al pans. The heating rate used was 10° C./min linear ramp from 25 to 400° C. with a nitrogen purging at a rate of 60 ml/min. TGA thermograms were analysed using TRIOS software.

[2] = Dynamic Vapor Sorption (DVS), salt screen and scale-up salts; assay type: physicochemical; conditions: for moisture absorption at 70% RH / moisture absorption at 80% RH / water uptake up to 60% RH: first sorption isotherm; for moisture absorption at 70% RH / moisture absorption at 80% RH / water uptake up to 60% RH / deliquescence during DVS / hygroscopicity class: 25° C.; for deliquescence during DVS: high RH; for hygroscopicity class: DVS
Protocol: Dynamic Vapor Sorption (DVS)
DVS analyses were performed on TA Instrument DVS Q5000. Samples were added to a pre-tared metallised quartz crucible and run at 25° C. from 40% RH to 90% RH, down to zero and back to 40%. This cycle was repeated in increments of 10% RH.

[3] = DVS double-cycle experiment (Example 3); assay type: physicochemical
[4] = Storage at 40° C./75% RH and 25° C./97% RH for 7 days, XRPD and HPLC (Example 3); assay type: physicochemical
Protocol: FIG. 128. XRPD diffractogram overlay of 5-MeO-DMT Phosphate Pattern 1 before and after storage at 25° C./97% RH and 40° C./75% RH for 7 days.
FIG. 139. XRPD diffractogram overlay of 5-MeO-DMT Tartrate Pattern 1 before and after storage at 25° C./97% RH and 40° C./75% RH for 7 days.
The sample is classed as slightly hygroscopic with a total reversible mass change of 0.3 wt. % between 0-90% RH. The DVS isotherm and DVS kinetic plot can be seen in FIGS. 124 and 125, respectively. The solid form was unchanged after a double-cycle experiment, the XRPD analysis confirming this can be seen in FIG. 126.
The sample is classed as slightly hygroscopic with a total reversible mass change of 0.6 wt. % between 0-90% RH (FIG. 135). The solid-form was unchanged after the double-cycle experiment (FIG. 136).

[5] = Polymorph assessment, slurry maturation in 10 solvents between 5 and 50° C.; assay type: physicochemical; design: key to Observation at 50° C. / Observation at 5° C.: ✓ = solution; ✓/X = turbid solution; X = suspension; conditions: 5-MeO-DMT phosphate, input DR-2186-45-01 (PHO Pattern 1+Extra Peaks), 20 mg in 10 volumes; solvent per sample: -01 MeOH, -02 Acetone, -03 CAN, -04 IPA:Water 9:1, -05 2-MeTHF, -06 EtOAc, -07 Ethanol, -08 Toluene, -09 MEK, -10 TBME
Protocol: (§1) DR-2186-45-01 (20 mg, PHO Pattern 1+Extra Peaks) was weighed into 10 HPLC vials. To this was added 10 volumes (200 μL) of solvent, a stirrer bar and the samples heated to 50° C. on a Polar Bear heat/cool block (400 RPM). After holding at 50° C. for 30 minutes and observation was made and the samples cooled to 5° C. where a further observation was made. All samples were than subjected to heat/cool cycles between 5 and 50° C. holding for 4 hours at each temperature for 24 hours.
A polymorph assessment was carried out in 10 different solvents using PHO Pattern 1+extra peaks as the input material, maturating a slurry of the salt between 5° C. and 50° C. for 24 hours. The results of the XRPD analysis of the samples can be seen in FIG. 118. The isolated solid was the same as the input material in all cases other than MeOH.
as §1, with “DR-2186-46-01” for “DR-2186-45-01”, “TAR” for “PHO”, “1)” for “1+Extra Peaks)”
A polymorph assessment was carried out in 10 different solvents, maturating a slurry of the salt between 5° C. and 50° C. for 24 hours.

[6] = assay type: physicochemical; conditions: 40° C./75% RH, three days
Protocol: Physical Stability of Salts
Physical stability stress tests were conducted on generated crystalline salts at controlled temperature and relative humidity. The powder samples were stored at 40° C./75% RH for three days. After this time samples were analysed by XRPD to see whether the physical state of salts changed during the storage.

[7] = Polymorphism screen of hydrochloride and benzoate salts: thermal cycling, evaporation, antisolvent addition, cooling (XRPD); assay type: physicochemical
Protocol: Twenty five of the lyophilised samples were treated with solvent and thermally cycled between ambient and 40° C. with four hours spent under each condition. After three days and solids were isolated by centrifuge filtration and analysed by XRPD.
(§2) Twelve samples of the lyophilised material were treated with a minimal volume (ca 0.5 ml) of warm solvent, syringe filtered through a 0.22 µm filter and added to a clean HPLC vial and allowed to evaporate at RT. The solvents used and XRPD results following evaporation are detailed in the Table below:
as §2, with “micrometre” for “µm”
For antisolvent additions thirteen samples of the lyophilised material were dissolved in a small amount of hot solvent (^˜0.5 ml). […] A large excess of antisolvent was then added, the vials sealed. After storage at RT overnight, and samples where no solid had been produced were first cooled to 4° C. for ˜24 hrs, and again if no solid was produced, they were cooled to −18° C. Any solids were isolated by centrifuge filtration and analysed by XRPD.
For the cooling experiments twelve samples of the lyophilised material were dissolved in a small amount of hot solvent (^˜[…]) and syringe filtered through a 0.22 μm filter into a clean HPLC vial. Samples were allowed to cool to RT, and if no solid was produced to 4° C. and then to −18° C. Solids were isolated by centrifuge filtration and analysed by XRPD.

[8] = Solubility assessment in four different media; assay type: physicochemical; conditions: four media: SNF, pH 1.2, pH 4.5 and pH 6.8 media, 37 °C, aqueous buffer, thermodynamic from solid; four different media
Protocol: Solubility assessments of 5-MeO-DMT oxalate, hydrobromide fumarate and benzoate were performed in four different media: […]

With `COc1ccc2[nH]cc(CCN(C)C)c2c1` [Benzenesulfonate salt, 5-MeO-DMT benzenesulfonate] the “thermal stability up to (TGA)” value [1] was 250 °C, the “moisture absorption at 70% RH” value [2] was 7 % w/w and the “moisture absorption at 80% RH” value [2] was 14 % w/w. For the same compound, the “water uptake up to 60% RH” value [2] was 1.2 % w/w and the “deliquescence during DVS” value [2] was “begins to deliquesce”.
With `COc1ccc2[nH]cc(CCN(C)C)c2c1.O=P(O)(O)O` [DR-2186-48-01] the “GVS hygroscopicity class (European Pharmacopeia definitions)” value [3] was “slightly hygroscopic (based on European Pharmacopeia (Pharmaceuticals that pick up between 0.2% and 2.0% moisture at 80% RH are considered slightly hygroscopic)”, the “GVS total mass change as mol eq. water” value ([3]; from 0-90% RH) was 0.06 mol eq. water and the “GVS total mass change” value ([3]; from 0-90% RH, double cycle) was 0.34 wt. %. For the same compound, the TGA decomposition onset [1] was 130-170 °C Decomposition onset from 180 °C, the “TGA further mass lost during the melt” value ([1]; 130-170° C.) was “further 0.95% (0.1 mol eq. MeOH) was lost during the melt,” and the TGA mass loss ([1]; from 40-125° C.) was 0.4 wt. % (0.04 mol. eq. MeOH) mass loss from 40-125 °C A. The “Static Storage 7 days - 25° C./97% RH, XRPD” value ([4]; 25° C./97% RH) was “XRPD - PHO Pattern 1”, the “Static Storage 7 days - 25° C./97% RH, HPLC” value ([4]; 25° C./97% RH, HPLC purity) was “HPLC - 98.0%” and the “Static Storage 7 days - 40° C./75% RH, XRPD” value ([4]; 40° C./75% RH) was “XRPD - PHO Pattern 1”. For the same compound, the “Static Storage 7 days - 40° C./75% RH, HPLC” value ([4]; 40° C./75% RH, HPLC purity) was “HPLC - 98.1%”.
For `COc1ccc2[nH]cc(CCN(C)C)c2c1.O=P(O)(O)O` [DR-2186-52-02], the “Observation at 5° C.” value [5] was “X” and the “Observation at 50° C.” value [5] was “X”.
For `COc1ccc2[nH]cc(CCN(C)C)c2c1.O=C(O)CC(O)C(=O)O` [Malate salt, 5-MeO-DMT malate], the “thermal stability up to (TGA)” value [1] was “around 170 °C” and the “crystalline form after storage (XRPD)” value [6] was “conversion to a “gum” material”.
In the case of `COc1ccc2[nH]cc(CCN(C)C)c2c1` [Phosphate Pattern 1, 5-MeO-DMT phosphate], the “total reversible mass change between 0-90% RH” value ([3]; DVS) is reported as 0.3 wt. %.
In the case of `COc1ccc2[nH]cc(CCN(C)C)c2c1` [Phosphate salt, 5-MeO-DMT phosphate], the “crystalline form after storage (XRPD)” value [6] is reported as “did not undergo any transformation” and the “change of crystalline form during the DVS experiment (DVS / post-DVS XRPD)” value (shortened to “change … (DVS / post-DVS XRPD)”) [2] is reported as “no evidence of form change”.
With `COc1ccc2[nH]cc(CCN(C)C)c2c1` [Tartrate salt, 5-MeO-DMT tartrate] the “thermal stability up to (TGA)” value [1] was “around 170 °C”, the “crystalline form after storage (XRPD)” value [6] was “No change in the crystalline form” and the “change … (DVS / post-DVS XRPD)” value [2] was “did not undergo any solid form transformation”. The hygroscopicity class [2] was “moderately hygroscopic (Pharmaceuticals that pick up between 2.0% and 15.0% moisture at 80% RH are considered moderately hygroscopic)” and the hygroscopicity class ([2]; listed as tartrate salt) was “moderately hygroscopic (Pharmaceuticals that pick up between 2.0% and 15.0% moisture at 80% RH are considered moderately hygroscopic)”.
With `COc1ccc2[nH]cc(CCN(C)C)c2c1` [Tosylate salt, 5-MeO-DMT tosylate] the “crystalline form after storage (XRPD)” value [6] was “identical XRPD pattern as the input material”, the “change … (DVS / post-DVS XRPD)” value [2] was “did not undergo any solid-state changes” and the hygroscopicity class [2] was “slightly hygroscopic (Pharmaceuticals that pick up between 0.2% and 2.0% moisture at 80% RH are considered slightly hygroscopic)”.
For `COc1ccc2[nH]cc(CCN(C)C)c2c1.O=C(O)c1ccccc1` [benzoate salt, 5-MeO-DMT benzoate], the “XRPD Result” value ([7]; evaporation at RT of lyophilised benzoate salt from 1-PrOH (DJP2202-010-02)) was “Oil”, the “XRPD Result” value ([7]; evaporation at RT of lyophilised benzoate salt from EtOH (DJP2202-010-05)) was “Oil” and the “XRPD Result” value ([7]; evaporation at RT of lyophilised benzoate salt from IPA (DJP2202-010-06)) was “Pattern 4”. The “XRPD Result” value ([7]; evaporation at RT of lyophilised benzoate salt from IPAc (DJP2202-010-10)) was “Pattern 2”, the “XRPD Result” value ([7]; evaporation at RT of lyophilised benzoate salt from MEK (DJP2202-010-11)) was “Pattern 4” and the “XRPD Result” value ([7]; evaporation at RT of lyophilised benzoate salt from MIBK (DJP2202-010-04)) was “Oil”. The “XRPD Result” value ([7]; evaporation at RT of lyophilised benzoate salt from MeCN (DJP2202-010-12)) was “Pattern 4”, the “XRPD Result” value ([7]; evaporation at RT of lyophilised benzoate salt from THF (DJP2202-010-07)) was “Pattern 4” and the “XRPD Result” value ([7]; evaporation at RT of lyophilised benzoate salt from chlorobenzene (DJP2202-010-09)) was “Pattern 4”. For the same compound, the “XRPD Result” value ([7]; evaporation at RT of lyophilised benzoate salt from dioxane (DJP2202-010-08)) was “Pattern 4” and the solubility [8] was no less than 100 mg/mL.
In the case of `COc1ccc2[nH]cc(CCN(C)C)c2c1` [glycolate salt, 5-MeO-DMT glycolate], the “thermal stability up to (TGA)” value [1] is reported as “around 155 °C”, the “moisture absorption at 70% RH” value [2] is reported as 11 % w/w and the “moisture absorption at 80% RH” value [2] is reported as 33 % w/w. The “water uptake up to 60% RH” value [2] was 2.3 % w/w and the “deliquescence during DVS” value [2] was “begins to deliquesce”.
With `COc1ccc2[nH]cc(CCN(C)C)c2c1.Cl` [hydrochloride salt, 5-MeO-DMT hydrochloride] the “thermal stability up to (TGA)” value [1] was roughly 235 °C, the “XRPD Results” value ([7]; evaporation at RT of lyophilised hydrochloride salt from 1-PrOH (DJP2202-011-02)) was “Pattern 1” and the “XRPD Results” value ([7]; evaporation at RT of lyophilised hydrochloride salt from EtOH (DJP2202-011-05)) was “Pattern 1”. For the same compound, the “XRPD Results” value ([7]; evaporation at RT of lyophilised hydrochloride salt from IPA (DJP2202-011-06)) was “Pattern 1”, the “XRPD Results” value ([7]; evaporation at RT of lyophilised hydrochloride salt from MEK (DJP2202-011-11)) was “Pattern 1” and the “XRPD Results” value ([7]; evaporation at RT of lyophilised hydrochloride salt from MeCN (DJP2202-011-12)) was “Oil”.

From US11773063B1, “Pharmaceutically acceptable salts and compositions thereof” (priority 2022, dated 2023)
